Consider nine molecules from ChEMBL document CHEMBL4680379, “Structure-based Discovery of Cell-Potent Peptidomimetic Inhibitors for Protein N-Terminal Methyltransferase 1” (ACS Med Chem Lett, 2021).

Data set [1] deals with T1, N-terminal Xaa-Pro-Lys N-methyltransferase 1 (Homo sapiens, UniProt Q9BV86).
T1 sequence (Q9BV86 whole entry): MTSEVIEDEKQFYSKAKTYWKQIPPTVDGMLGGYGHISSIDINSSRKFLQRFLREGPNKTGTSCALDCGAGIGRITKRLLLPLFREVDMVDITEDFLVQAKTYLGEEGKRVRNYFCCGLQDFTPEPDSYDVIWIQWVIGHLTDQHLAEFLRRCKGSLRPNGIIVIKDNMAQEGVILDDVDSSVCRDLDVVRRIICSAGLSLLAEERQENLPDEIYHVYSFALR
Description: Inhibition of recombinant human N-terminal His6-tagged NTMT1 (1 to 222 residues) expressed in Escherichia coli BL21-CodonPlus(DE3)-RIL using GPKRIA peptide and SAM as substrate pre-incubated for 10 mins in presence of SAM followed by substrate addition by SAHH coupled fluorescence assay.

The target of data set [2] is T2, N-terminal Xaa-Pro-Lys N-methyltransferase 1 (Homo sapiens) (UniProt Q9BV86).
T2 sequence (whole entry): T1 sequence (Q9BV86 whole entry)
The data set is described as follows: Inhibition of NTMT1 in human HCT116 cells assessed as decrease in me3-SPK level at 1 mM incubated for 3 days by Western blot analysis relative to control. The data set is classed as cell-based. Conditions: HCT-116, time 3.0 day.

Data set [3] addresses T2, N-terminal Xaa-Pro-Lys N-methyltransferase 1 (Homo sapiens). Description: Inhibition of NTMT1 in human HCT116 cells assessed as decrease in me3-SPK level at 100 uM incubated for 3 days by Western blot analysis relative to control. As to conditions: HCT-116, time 3.0 day. It is filed as cell-based.
The target of data set [4] is Trypsin (Homo sapiens, UniProt P07477+P07478+P35030). Description: Stability of compound assessed as trypsin (unknown origin) mediated compound hydrolysis at 10 uM incubated for 1 hr by MALDI-MS analysis. The data set is classed as ADME, protein assay.
Data set [5] addresses T2, N-terminal Xaa-Pro-Lys N-methyltransferase 1 (Homo sapiens). Description: Inhibition of NTMT1 in human HCT116 cells assessed as decrease in me3-SPK level at 300 uM incubated for 3 days by Western blot analysis relative to control. The data set is classed as cell-based. Conditions: HCT-116, time 3.0 day.
Data set [6] is filed under the species Homo sapiens. The data set is described as follows: Selectivity for recombinant human N-terminal His6-tagged NTMT1 (1 to 222 residues) expressed in Escherichia coli BL21-CodonPlus(DE3)-RIL over His-tagged SETD7 (unknown origin).
Data set [7] concerns the target Protein arginine N-methyltransferase 1 (Homo sapiens) (UniProt Q99873). Description: Inhibition of PRMT1 (unknown origin) at 100 uM using H4-21 peptide as substrate preincubated for 10 mins in presence of SAM followed by substrate addition by SAHH-coupled fluorescence assay relative to control.
For data set [8], the species on record is Homo sapiens. The data set is described as follows: Selectivity for recombinant human N-terminal His6-tagged NTMT1 (1 to 222 residues) expressed in Escherichia coli BL21-CodonPlus(DE3)-RIL over SAHH (unknown origin).
For data set [9], the species on record is Homo sapiens. Description: Selectivity for recombinant human N-terminal His6-tagged NTMT1 (1 to 222 residues) expressed in Escherichia coli BL21-CodonPlus(DE3)-RIL over PRMT3 (unknown origin).
The target of data set [10] is T2, N-terminal Xaa-Pro-Lys N-methyltransferase 1 (Homo sapiens). Description: Non-competitive inhibition of recombinant human N-terminal His6-tagged NTMT1 (1 to 222 residues) expressed in Escherichia coli BL21-CodonPlus(DE3)-RIL using GPKRIA peptide and varying concentration of SAM as substrate pre-incubated for 10 mins in presence of SAM followed by fixed concentration of substrate addition and measured for 15 mins by SAHH coupled fluorescence assay. Conditions: time 25.0 min.

The species named for data set [11] is Homo sapiens. Description: Selectivity for recombinant human N-terminal His6-tagged NTMT1 (1 to 222 residues) expressed in Escherichia coli BL21-CodonPlus(DE3)-RIL over PRMT1 (unknown origin).
Data set [12] concerns the target Protein arginine N-methyltransferase 3 (Homo sapiens) (UniProt O60678). The data set is described as follows: Inhibition of PRMT3 (unknown origin) at 100 uM relative to control.
The target in data set [13] is Adenosylhomocysteinase (Homo sapiens) (UniProt P23526). Description: Inhibition of SAHH (unknown origin) at 100 uM relative to control.
Data set [14] concerns Trypanosoma brucei. The data set is described as follows: Inhibition of Trypanosoma brucei N-terminal His6-tagged PRMT7 expressed in Escherichia coli BL21-CodonPlus(DE3)-RIL at 100 uM using H4-21 peptide as substrate preincubated for 10 mins in presence of SAM followed by substrate addition by SAHH-coupled fluorescence assay relative to control.
Data set [15] deals with T1, N-terminal Xaa-Pro-Lys N-methyltransferase 1. The data set is described as follows: Inhibition of NTMT1 in human HCT116 cells assessed as decrease in me3-SPK level incubated for 3 days by Western blot analysis. It is filed as cell-based, HCT-116. Background: Immunoblotting shows a protein as a band on a membrane.
Data set [16] addresses T3, Histone-lysine N-methyltransferase EHMT2 (Homo sapiens) (UniProt Q96KQ7).
T3 sequence (whole entry): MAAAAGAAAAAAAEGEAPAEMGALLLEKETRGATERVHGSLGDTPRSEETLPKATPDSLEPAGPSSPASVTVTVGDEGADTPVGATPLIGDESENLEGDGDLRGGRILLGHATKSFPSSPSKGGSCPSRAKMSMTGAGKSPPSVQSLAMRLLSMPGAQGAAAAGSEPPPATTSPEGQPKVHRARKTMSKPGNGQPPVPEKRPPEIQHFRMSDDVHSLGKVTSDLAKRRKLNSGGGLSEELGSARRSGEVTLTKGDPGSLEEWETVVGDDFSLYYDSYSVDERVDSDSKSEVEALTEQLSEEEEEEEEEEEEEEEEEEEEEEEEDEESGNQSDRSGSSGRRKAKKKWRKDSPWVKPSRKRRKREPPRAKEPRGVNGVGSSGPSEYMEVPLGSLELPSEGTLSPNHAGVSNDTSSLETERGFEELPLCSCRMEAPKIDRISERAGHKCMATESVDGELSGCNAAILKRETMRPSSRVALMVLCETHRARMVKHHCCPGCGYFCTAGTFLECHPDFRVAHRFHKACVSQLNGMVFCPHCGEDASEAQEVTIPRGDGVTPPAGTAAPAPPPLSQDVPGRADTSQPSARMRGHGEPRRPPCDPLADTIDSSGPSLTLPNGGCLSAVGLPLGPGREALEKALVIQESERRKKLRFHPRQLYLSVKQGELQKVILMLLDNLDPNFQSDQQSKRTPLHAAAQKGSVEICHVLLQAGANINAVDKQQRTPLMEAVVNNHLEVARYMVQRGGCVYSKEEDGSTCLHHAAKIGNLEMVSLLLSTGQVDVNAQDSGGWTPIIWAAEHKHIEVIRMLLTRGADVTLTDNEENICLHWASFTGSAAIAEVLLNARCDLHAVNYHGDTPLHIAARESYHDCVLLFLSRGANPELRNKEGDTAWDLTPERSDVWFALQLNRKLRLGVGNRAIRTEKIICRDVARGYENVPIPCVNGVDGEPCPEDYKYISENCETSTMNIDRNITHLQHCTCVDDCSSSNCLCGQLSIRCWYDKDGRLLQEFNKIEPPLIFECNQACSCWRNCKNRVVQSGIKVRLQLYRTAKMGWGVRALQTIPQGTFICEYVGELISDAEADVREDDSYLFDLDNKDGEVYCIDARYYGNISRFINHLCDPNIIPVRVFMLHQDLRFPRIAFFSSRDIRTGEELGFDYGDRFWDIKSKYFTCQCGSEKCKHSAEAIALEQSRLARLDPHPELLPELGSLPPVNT
The data set is described as follows: Inhibition of human His-tagged G9a (913 to 1193 residues) expressed in Escherichia coli BL21-CodonPlus(DE3)-RIL at 100 uM using H3-21 peptide as substrate preincubated for 10 mins in presence of SAM followed by substrate addition by SAHH-coupled fluorescence assay relative to control.

Data set [17] is filed under the species Homo sapiens. The data set is described as follows: Selectivity for recombinant human N-terminal His6-tagged NTMT1 (1 to 222 residues) expressed in Escherichia coli BL21-CodonPlus(DE3)-RIL over human His-tagged G9a (913 to 1193 residues) expressed in Escherichia coli BL21-CodonPlus(DE3)-RIL.
The nature of data set [18]: Selectivity for recombinant human N-terminal His6-tagged NTMT1 (1 to 222 residues) expressed in Escherichia coli BL21-CodonPlus(DE3)-RIL over Trypanosoma brucei N-terminal His6-tagged PRMT7 expressed in Escherichia coli BL21-CodonPlus(DE3)-RIL.
The target in data set [19] is T4, Histone-lysine N-methyltransferase SETD7 (Homo sapiens) (UniProt Q8WTS6).
T4 sequence (whole entry): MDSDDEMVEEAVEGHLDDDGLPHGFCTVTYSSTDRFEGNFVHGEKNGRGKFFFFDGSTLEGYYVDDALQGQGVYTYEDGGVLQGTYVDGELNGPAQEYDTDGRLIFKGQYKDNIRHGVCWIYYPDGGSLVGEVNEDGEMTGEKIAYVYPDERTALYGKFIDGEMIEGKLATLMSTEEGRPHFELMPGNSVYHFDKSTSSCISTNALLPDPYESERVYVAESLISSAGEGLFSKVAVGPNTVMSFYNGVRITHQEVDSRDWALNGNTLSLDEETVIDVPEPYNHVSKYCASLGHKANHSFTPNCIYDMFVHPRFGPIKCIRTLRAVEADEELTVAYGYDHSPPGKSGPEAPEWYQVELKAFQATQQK
Description: Inhibition of His-tagged SETD7 (unknown origin) at 100 uM using H3-21 peptide as substrate preincubated for 10 mins in presence of SAM followed by substrate addition by SAHH-coupled fluorescence assay relative to control.

Activity calls are given as the source filed them. No cut-off for these calls is given here.

Protein arginine N-methyltransferase 3 (Homo sapiens), sequence (O60678 2-531 limits assumed): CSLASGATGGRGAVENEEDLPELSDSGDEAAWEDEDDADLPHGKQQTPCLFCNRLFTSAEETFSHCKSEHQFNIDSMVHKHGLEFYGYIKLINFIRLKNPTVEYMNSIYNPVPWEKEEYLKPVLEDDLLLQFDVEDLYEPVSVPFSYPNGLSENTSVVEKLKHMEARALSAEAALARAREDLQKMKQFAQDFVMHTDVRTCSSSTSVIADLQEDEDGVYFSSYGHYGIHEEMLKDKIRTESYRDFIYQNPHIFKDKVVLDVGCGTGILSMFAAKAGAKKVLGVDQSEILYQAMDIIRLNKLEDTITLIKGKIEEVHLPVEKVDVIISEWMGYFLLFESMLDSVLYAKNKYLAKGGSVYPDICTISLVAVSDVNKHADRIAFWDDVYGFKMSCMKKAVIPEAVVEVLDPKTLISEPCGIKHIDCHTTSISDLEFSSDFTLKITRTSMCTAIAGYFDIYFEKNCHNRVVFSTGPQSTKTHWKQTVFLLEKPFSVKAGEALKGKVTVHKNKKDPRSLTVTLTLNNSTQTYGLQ
Adenosylhomocysteinase (Homo sapiens), sequence (P23526 2-432 limits assumed): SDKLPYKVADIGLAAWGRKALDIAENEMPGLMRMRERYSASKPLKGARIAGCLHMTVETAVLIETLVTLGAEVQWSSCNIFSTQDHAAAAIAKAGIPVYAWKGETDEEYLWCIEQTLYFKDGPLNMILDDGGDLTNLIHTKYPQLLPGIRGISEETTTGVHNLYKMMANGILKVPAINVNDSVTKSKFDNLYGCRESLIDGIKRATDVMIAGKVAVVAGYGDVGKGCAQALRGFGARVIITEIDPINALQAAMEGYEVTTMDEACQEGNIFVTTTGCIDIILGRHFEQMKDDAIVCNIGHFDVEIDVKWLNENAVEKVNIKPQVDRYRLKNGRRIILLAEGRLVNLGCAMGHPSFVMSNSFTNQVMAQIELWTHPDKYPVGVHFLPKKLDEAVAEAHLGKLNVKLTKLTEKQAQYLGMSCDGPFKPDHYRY
Protein arginine N-methyltransferase 1 (Homo sapiens), sequence (Q99873 whole entry, looked up, the tested form may be a part): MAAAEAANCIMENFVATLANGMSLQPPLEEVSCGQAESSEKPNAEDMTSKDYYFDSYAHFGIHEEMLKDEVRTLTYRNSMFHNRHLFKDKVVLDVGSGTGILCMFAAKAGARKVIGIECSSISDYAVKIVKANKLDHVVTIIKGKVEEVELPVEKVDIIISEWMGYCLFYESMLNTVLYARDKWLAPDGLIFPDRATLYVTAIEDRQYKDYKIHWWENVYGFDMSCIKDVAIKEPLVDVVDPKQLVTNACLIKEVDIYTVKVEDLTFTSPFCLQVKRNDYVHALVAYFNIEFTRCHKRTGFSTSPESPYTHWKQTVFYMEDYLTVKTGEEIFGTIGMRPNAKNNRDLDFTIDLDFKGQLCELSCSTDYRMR

Regarding `NCCCC[C@H](NC(=O)[C@@H]1CCCN1C(=O)Cc1cccc2ccccc12)C(=O)N[C@@H](CCC(=O)O)C(N)=O`, in data set [1], the IC50 was 4.2 µM.

`N=C(N)NCCC[C@H](NC(=O)[C@H](CCCCN)NC(=O)[C@@H]1CCCN1C(=O)Cc1cccc2ncccc12)C(N)=O`: the IC50 in data set [1] is over 100 µM.

With `CN(C(=O)[C@H](CCCCN)NC(=O)[C@@H]1CCCN1C(=O)Cc1cccc2ccccc12)[C@@H](CCCCN)C(N)=O`, the inhibition is 100% in [2], 0% in data set [3] and 48% in data set [5]. Besides, the IC50 in [1] was 0.47 µM. For the same molecule, in data set [4], the Stabilty result was “Stable”.

Take `CN(C(=O)[C@H](CCCCN)NC(=O)[C@@H]1CCCN1C(=O)Cc1cccc2ccccc12)[C@@H](CCCNC(=N)N)C(N)=O`: in data set [4], the Stabilty result is reported as “Stable”.

Consider `NCCCC[C@H](NC(=O)[C@@H]1CCCN1C(=O)Cc1cccc2ccccc12)C(=O)Nc1cccc2ccccc12`, for which the values for the inhibition in data set [2], in [3] and in [5] were 47%, 0% and 1%, respectively. For the same molecule, the IC50 in data set [1] was 0.97 µM.

As for `N=C(N)NCCC[C@H](NC(=O)[C@H](CCCCN)NC(=O)[C@@H]1CCCN1C(=O)Cc1cccc2ccccc12)C(N)=O`, the Selectivity ratio in [6], in [8], in [9], in [11], in data set [17] and in data set [18] was over 1000 each time. Moreover, the inhibition is under 50% in data set [7]; 52% in data set [2]; under 50% in data set [12]; under 50% in data set [13]; under 50% in [14]; 3% in [3]. Moreover, the inhibition is under 50% in data set [16], under 50% in data set [19] and 10% in data set [5]. Also, in data set [10], the inhibition result was “Active”. In addition, the IC50 in data set [1] was 0.1 µM; in data set [15] it was 1000 µM. Also, the Stabilty entry in [4] was “Unstable”.

For the molecule `NCCCC[C@H](NC(=O)[C@@H]1CCCN1C(=O)Cc1cccc2ccccc12)C(=O)Nc1cccc(C(N)=O)c1`, the inhibition in [2] is 90%; in data set [3] it was 10%; in data set [5] it was 57%. Moreover, in data set [1], the half-inhibitory concentration (IC50) was 0.13 µM.

Take `C[C@@H](C(N)=O)N(C)C(=O)[C@H](CCCCN)NC(=O)[C@@H]1CCCN1C(=O)Cc1cccc2ccccc12`: the values for the inhibition in data set [2], in data set [3] and in [5] were 70%, 0% and 3%, respectively. For the same molecule, the IC50 in data set [1] turned out to be 0.58 µM. For the same molecule, the Stabilty result in data set [4] is reported as “Stable”.

With `NCCCC[C@H](NC(=O)[C@@H]1CCCN1C(=O)Cc1cccc2ccccc12)C(=O)Nc1ccccc1`, the inhibition was 79% in data set [2], 0% in [3] and 55% in data set [5]. In [1], the IC50 is 1.1 µM.

For orientation: IC50 means the concentration at which inhibition is half-maximal. Usually inhibition stands for the share of the control response that was lost under treatment.
